Active and inactive are the calls of the source.
Tests used:
[1] = molecular target: T1, DNA repair and recombination protein RAD54-like (Homo sapiens, UniProt Q92698); assay: RAD54 Holliday junction migration blockers – biochemical, fluorescence, cherry-picked samples, dose series, confirmation (AID 651657); type: functional
T1 sequence (Q92698 whole entry): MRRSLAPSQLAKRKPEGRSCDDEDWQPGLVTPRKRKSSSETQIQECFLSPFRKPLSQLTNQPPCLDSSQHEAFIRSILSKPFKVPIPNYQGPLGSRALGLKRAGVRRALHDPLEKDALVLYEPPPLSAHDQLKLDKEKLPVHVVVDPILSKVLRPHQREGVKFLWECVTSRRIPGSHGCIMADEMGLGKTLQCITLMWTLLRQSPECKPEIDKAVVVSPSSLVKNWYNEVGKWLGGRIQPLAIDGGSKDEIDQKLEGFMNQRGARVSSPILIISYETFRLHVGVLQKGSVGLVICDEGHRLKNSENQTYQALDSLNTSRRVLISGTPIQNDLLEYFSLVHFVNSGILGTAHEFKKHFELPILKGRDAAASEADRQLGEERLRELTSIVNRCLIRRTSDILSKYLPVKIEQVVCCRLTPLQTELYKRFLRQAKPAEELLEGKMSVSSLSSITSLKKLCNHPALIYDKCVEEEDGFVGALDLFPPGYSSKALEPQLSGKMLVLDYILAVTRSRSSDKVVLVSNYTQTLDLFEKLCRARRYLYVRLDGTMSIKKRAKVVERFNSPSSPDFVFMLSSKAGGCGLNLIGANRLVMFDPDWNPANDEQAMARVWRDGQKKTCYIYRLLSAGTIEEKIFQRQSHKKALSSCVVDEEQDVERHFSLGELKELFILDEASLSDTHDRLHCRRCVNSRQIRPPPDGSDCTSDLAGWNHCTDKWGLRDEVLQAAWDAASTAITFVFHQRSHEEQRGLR

[2] = molecular target: Glucose-6-phosphate 1-dehydrogenase (Homo sapiens, UniProt P11413); assay: inhibition of Homo sapiens G6PD, dose series – biochemical, fluorescence, selectivity assay for P. falciparum G6PD inhibitor project, dose response (AID 504792); type: functional
Sequence of Glucose-6-phosphate 1-dehydrogenase (P11413 whole entry): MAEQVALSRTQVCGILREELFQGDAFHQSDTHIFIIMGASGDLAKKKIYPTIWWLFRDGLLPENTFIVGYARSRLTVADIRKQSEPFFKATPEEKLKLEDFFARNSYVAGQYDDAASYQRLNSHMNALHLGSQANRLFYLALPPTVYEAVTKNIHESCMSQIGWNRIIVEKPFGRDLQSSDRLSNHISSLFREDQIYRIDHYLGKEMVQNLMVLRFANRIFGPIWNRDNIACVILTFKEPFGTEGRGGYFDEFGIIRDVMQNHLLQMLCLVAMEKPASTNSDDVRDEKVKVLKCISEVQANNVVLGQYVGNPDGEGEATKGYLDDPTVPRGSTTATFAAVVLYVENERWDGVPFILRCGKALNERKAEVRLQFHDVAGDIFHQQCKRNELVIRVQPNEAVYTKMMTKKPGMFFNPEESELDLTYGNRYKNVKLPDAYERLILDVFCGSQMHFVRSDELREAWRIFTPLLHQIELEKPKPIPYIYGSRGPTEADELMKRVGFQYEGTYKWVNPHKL

[3] = molecular target: T2, Endoribonuclease toxin MazF (Escherichia coli K-12, UniProt P0AE70); assay: activation of MazEF endoribonuclease cleavage – biochemical, fluorescence, single-stranded RNA substrate, uHTS hits, dose response (AID 588481); type: functional
T2 sequence (P0AE70 whole entry): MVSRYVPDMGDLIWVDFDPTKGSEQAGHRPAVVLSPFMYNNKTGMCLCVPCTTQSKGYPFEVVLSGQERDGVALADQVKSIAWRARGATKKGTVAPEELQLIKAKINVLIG

[4] = molecular target: T3, Corticotropin-releasing factor receptor 2/Corticotropin-releasing factor-binding protein (Homo sapiens, UniProt P24387+Q13324); assay: activators of CRF receptor 2 with binding protein – uHTS hits, confirmation (AID 602473); type: functional; details: read-out: EC50_Mean
T3 sequence (Q13324 whole entry): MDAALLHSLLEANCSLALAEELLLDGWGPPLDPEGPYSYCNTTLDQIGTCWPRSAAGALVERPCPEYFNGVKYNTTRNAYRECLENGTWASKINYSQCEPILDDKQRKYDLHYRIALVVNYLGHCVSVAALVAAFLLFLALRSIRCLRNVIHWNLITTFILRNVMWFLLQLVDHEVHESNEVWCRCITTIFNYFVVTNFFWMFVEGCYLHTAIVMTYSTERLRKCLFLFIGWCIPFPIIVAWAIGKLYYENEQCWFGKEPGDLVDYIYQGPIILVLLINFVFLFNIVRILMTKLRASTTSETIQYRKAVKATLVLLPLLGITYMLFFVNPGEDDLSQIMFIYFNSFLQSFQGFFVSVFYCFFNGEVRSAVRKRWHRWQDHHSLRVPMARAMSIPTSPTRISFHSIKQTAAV
T3 sequence (P24387 whole entry): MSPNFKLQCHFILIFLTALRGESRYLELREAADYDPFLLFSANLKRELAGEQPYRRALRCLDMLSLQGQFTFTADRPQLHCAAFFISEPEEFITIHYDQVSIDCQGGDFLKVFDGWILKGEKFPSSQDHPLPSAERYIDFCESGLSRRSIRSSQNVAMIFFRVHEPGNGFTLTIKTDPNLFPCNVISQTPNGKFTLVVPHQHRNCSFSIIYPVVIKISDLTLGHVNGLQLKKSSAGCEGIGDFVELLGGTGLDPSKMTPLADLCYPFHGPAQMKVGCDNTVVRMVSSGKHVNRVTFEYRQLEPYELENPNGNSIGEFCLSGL

[5] = molecular target: Cytochrome P450 2C9 (Homo sapiens, UniProt P11712)
[6] = molecular target: T2, Endoribonuclease toxin MazF; assay: substrate-only fluorescence increase artefacts – biochemical, single-stranded RNase substrate, counter-screen for MazEF activator project, dose response (AID 588502); type: functional
[7] = molecular target: T4, RNA-binding protein pos-1 (Caenorhabditis elegans, UniProt G5EF15); assay: disruptors of C. elegans POS-1 RNA interaction – biochemical, fluorescence polarization, dose response (AID 1964);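 also: purified POS-1 fused to maltose binding protein made in E. coli; potency of compounds blocking POS-1 binding to fluorescent RNA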
T4 sequence (G5EF15 whole entry): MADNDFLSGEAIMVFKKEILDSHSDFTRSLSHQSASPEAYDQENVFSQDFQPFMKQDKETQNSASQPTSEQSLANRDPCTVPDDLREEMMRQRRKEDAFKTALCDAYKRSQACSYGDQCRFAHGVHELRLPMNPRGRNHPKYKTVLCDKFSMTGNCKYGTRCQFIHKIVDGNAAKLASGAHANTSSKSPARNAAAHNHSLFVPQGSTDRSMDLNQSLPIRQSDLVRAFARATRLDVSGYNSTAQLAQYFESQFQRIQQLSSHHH

[8] = molecular target: T5, Zinc finger protein mex-5 (Caenorhabditis elegans, UniProt Q9XUB2); assay: potency of MEX-5 RNA-binding blockers – biochemical, C. elegans, fluorescence polarization, dose response (AID 1960)
T5 sequence (Q9XUB2 whole entry): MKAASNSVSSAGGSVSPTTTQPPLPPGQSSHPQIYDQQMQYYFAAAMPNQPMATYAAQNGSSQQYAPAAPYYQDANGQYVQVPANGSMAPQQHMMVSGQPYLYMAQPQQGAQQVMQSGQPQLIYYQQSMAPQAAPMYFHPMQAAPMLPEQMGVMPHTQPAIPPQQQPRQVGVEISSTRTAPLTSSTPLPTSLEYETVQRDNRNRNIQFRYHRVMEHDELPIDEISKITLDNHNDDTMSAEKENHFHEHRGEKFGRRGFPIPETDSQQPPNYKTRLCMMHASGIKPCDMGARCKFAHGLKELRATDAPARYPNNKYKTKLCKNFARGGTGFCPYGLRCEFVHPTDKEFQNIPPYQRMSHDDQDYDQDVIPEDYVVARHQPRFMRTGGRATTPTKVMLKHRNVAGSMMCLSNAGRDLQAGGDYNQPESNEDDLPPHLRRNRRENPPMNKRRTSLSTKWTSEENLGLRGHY

[9] = molecular target: Cytochrome P450 3A4 (Homo sapiens, UniProt P08684);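 also: CYP3A4 tested as one member of a cytochrome P450 panel screen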
Sequence of Cytochrome P450 3A4 (P08684 whole entry): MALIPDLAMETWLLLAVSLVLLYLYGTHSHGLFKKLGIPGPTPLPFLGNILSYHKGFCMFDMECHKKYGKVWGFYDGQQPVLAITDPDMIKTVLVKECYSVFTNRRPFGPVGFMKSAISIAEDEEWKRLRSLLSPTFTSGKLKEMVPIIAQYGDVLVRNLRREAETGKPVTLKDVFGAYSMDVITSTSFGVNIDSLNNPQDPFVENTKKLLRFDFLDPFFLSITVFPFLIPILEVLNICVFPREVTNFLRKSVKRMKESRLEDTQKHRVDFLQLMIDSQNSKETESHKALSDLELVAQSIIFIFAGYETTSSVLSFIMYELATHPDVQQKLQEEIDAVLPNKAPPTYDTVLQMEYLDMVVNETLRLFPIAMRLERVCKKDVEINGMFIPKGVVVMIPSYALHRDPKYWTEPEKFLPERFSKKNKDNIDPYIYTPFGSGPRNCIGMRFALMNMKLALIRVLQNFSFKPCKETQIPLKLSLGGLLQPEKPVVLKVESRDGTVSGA

[10] = molecular target: Cytochrome P450 2D6 (Homo sapiens, UniProt P10635);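 also: CYP2D6 member of a cytochrome P450 panel assay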
Sequence of Cytochrome P450 2D6 (P10635 whole entry): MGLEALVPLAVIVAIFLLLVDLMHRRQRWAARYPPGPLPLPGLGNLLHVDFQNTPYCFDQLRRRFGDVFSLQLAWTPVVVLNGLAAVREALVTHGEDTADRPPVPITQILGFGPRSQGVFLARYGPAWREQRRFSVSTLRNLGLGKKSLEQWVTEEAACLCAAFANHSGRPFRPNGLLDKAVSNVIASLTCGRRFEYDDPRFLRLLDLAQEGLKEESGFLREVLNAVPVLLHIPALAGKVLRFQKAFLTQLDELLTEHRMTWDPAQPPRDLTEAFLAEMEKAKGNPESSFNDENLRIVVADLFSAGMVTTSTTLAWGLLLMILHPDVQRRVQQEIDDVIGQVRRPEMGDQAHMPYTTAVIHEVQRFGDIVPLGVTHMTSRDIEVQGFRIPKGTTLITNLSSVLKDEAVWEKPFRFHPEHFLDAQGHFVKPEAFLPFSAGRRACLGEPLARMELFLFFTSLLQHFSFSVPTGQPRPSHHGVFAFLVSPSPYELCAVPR

[11] = molecular target: Beta-2 adrenergic receptor (Homo sapiens, UniProt P07550); assay: ADRB2 activation measured by internalization – cell-based, FAP fluorogen, flow cytometry, cherry pick 1, dose response (AID 588763); type: functional
Sequence of Beta-2 adrenergic receptor (P07550 whole entry): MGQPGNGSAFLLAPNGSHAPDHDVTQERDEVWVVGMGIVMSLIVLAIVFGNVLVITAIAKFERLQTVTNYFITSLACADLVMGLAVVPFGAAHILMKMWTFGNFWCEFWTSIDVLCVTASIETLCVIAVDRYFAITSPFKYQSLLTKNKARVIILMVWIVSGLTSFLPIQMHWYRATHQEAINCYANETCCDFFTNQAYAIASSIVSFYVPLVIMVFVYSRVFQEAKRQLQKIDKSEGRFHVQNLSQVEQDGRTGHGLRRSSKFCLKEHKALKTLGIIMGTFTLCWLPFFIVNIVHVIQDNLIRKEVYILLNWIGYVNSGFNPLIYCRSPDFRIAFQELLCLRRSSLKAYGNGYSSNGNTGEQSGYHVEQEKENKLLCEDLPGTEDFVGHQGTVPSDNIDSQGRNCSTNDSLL

[12] = molecular target: T6, Fatty acid synthase (Homo sapiens, UniProt P49327); assay: inhibition of human FAS-TE enzyme activity – biochemical, kinetic fluorescence intensity, dose response (AID 624326); type: functional;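 also: rate of fluorescence rise from hydrolysis of a fluorogenic O-methyl fluorescein ester substrate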
[13] = inhibition of ARNT PAS-B/TACC3 complex formation – biochemical, AlphaScreen, cherry-picked samples, confirmation (AID 651703); type: functional, Homo sapiens;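 also: His-tagged ARNT PAS-B domain paired with GST-TACC3 E629A dimer coactivator fragment; potency of inhibitors that break up the complex and lower AlphaScreen signal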
[14] = molecular target: T6, Fatty acid synthase; assay: inhibition of human FAS-TE enzyme activity – biochemical, endpoint fluorescence intensity, uHTS hits, dose response (AID 624327); type: functional;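 also: fluorescence from hydrolysis of an O-methyl fluorescein acyl ester substrate by the enzyme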
[15] = molecular target: Cytochrome P450 2C19 (Homo sapiens, UniProt P33261); assay: Cytochrome panel assay with activity outcomes. Panel member name: p450-cyp2c19 Compounds with AC50 equal or less than 10 uM are considered active; type: functional
[16] = molecular target: Paired box protein Pax-8 (Homo sapiens, UniProt Q06710); assay: PAX8 transcriptional activity inhibition in RMG-I – RMG-I cells, luciferase, cherry-pick, dose response (AID 687027); type: functional, cell-based;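 also: luciferase reporter driven by Pax8 target thyroperoxidase promoter measured by SteadyGlo luminescence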
[17] = molecular target: Genome polyprotein (dengue virus type 2, UniProt P29990); assay: flavivirus cap methylation enzyme inhibition – biochemical, confirmation dose response, primary screen (AID 588689); type: functional
Sequence of Genome polyprotein (P29990 2492-3391 limits assumed): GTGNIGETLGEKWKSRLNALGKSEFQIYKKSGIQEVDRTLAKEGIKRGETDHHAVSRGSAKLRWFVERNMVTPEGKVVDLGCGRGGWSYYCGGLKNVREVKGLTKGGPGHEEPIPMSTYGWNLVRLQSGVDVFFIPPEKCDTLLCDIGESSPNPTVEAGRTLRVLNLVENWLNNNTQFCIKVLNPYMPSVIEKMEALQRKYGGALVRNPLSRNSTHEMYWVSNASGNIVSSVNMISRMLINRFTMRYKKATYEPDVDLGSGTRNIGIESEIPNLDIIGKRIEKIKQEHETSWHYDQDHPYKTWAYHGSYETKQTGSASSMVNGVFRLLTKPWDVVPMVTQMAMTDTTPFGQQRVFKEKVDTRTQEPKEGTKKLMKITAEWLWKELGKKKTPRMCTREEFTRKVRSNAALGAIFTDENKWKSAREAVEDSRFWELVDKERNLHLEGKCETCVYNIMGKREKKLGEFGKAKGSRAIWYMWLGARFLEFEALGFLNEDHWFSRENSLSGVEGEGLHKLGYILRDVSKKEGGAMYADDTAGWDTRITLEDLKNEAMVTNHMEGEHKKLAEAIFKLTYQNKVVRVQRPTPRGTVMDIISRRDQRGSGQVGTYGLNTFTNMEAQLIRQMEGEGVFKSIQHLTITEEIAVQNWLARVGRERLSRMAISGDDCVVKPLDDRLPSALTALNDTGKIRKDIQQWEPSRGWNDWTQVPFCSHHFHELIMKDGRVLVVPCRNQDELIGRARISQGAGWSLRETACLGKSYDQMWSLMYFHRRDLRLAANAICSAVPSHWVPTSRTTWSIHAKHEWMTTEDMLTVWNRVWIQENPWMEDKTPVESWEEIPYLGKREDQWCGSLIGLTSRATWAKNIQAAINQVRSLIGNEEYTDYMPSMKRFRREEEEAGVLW

[18] = molecular target: Ras and Rab interactor 1/Tyrosine-protein kinase ABL1 (Homo sapiens, UniProt P00519+Q13671); type: functional;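 also: biochemical TR-FRET dose-response test measuring inhibition of binding between Rin1 and Abl proteins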
Sequence of Ras and Rab interactor 1/Tyrosine-protein kinase ABL1 (P00519 whole entry): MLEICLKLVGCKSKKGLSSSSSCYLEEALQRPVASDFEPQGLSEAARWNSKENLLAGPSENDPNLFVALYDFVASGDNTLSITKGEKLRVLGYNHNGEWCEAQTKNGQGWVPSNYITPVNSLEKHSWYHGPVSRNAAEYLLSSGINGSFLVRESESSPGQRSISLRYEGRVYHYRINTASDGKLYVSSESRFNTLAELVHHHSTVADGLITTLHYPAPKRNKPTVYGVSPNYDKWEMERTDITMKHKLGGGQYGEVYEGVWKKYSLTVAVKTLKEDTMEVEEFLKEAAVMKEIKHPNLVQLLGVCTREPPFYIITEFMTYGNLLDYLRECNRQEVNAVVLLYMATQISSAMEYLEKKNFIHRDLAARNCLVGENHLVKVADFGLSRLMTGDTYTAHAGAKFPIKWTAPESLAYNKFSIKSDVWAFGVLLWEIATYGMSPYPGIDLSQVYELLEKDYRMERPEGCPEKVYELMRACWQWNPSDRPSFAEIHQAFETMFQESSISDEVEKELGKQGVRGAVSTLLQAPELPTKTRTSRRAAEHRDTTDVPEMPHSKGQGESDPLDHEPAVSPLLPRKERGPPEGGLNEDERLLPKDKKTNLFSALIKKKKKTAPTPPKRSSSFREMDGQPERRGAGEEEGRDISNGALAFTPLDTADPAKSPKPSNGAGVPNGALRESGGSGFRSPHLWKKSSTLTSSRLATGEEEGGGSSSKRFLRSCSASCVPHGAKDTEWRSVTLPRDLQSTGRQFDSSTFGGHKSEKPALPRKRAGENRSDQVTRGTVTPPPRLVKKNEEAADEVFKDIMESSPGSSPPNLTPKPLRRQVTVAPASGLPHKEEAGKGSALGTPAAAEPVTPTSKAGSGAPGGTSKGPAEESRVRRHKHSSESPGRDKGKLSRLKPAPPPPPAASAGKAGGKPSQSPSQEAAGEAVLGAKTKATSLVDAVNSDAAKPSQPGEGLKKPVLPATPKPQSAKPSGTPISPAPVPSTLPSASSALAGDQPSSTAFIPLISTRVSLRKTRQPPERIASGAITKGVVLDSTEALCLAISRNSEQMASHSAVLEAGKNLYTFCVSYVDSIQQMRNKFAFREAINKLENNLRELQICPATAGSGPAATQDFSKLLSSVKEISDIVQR
Sequence of Ras and Rab interactor 1/Tyrosine-protein kinase ABL1 (Q13671 whole entry): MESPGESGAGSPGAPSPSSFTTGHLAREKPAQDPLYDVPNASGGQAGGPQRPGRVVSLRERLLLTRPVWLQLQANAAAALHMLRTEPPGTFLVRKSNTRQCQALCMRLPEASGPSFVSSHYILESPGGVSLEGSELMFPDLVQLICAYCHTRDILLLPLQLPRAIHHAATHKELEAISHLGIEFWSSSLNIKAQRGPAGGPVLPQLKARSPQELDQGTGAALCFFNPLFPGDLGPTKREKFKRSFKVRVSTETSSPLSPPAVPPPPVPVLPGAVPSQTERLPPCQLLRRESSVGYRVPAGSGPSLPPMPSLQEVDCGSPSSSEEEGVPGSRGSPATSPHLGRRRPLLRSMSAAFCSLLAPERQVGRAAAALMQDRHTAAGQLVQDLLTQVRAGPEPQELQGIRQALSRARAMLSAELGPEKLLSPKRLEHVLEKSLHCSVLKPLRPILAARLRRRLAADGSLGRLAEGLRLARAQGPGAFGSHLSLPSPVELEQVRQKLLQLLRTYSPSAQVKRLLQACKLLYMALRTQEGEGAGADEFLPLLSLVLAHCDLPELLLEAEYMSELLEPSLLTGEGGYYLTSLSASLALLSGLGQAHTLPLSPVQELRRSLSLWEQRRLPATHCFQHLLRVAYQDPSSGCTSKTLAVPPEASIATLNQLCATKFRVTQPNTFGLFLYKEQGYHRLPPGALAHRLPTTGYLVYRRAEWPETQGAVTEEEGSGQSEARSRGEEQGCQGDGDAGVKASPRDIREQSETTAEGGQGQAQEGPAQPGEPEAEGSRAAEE

[19] = test system: HEK293; assay: NOD2 signaling inhibitors in MDP-stimulated cells, cell-based, uHTS, luminescence (AID 2001); type: functional; details: Homo sapiens
[20] = Trypanosoma cruzi growth suppression in host cells – NIH3T3 host cells, beta-gal luminescence, confirmation (AID 2044); type: functional, cell-based;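 also: intracellular parasites grown in NIH/3T3 mouse fibroblasts as host cells; luminescent beta-galactosidase reporter signal from transgenic T. cruzi replicating inside host cells; inhibitors lower the luminescence signal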
[21] = test system: HEK293; assay: cells; type: functional, cell-based; details: Homo sapiens
[22] = test system: HEK293; assay: cells; type: functional, cell-based; details: Homo sapiens; remark: listed apart in the source
[23] = test system: HEK293; assay: cells; type: functional, cell-based; details: Homo sapiens; remark: listed apart in the source
[24] = test system: HEK293; assay: inhibition of NOD1-driven NF-kB reporter – cell-based, luminescence, uHTS, primary screen (AID 1578); type: functional; details: Homo sapiens
[25] = molecular target: Nucleotide-binding oligomerization domain-containing protein 2 (Homo sapiens, UniProt Q9HC29); assay: inhibition of NOD2-driven NF-kB reporter – cell-based, luminescence, uHTS, HEK293 (AID 1566); type: functional
[26] = NIH3T3 cell viability loss – ATP luminescence, mouse fibroblasts, counter-screen, dose response (AID 2010); type: functional, cell-based;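 also: cells exposed to compound for about 90 hours before reading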

CN(C)c1cc(NC(=O)CNC(C)(C)C)c2ccccc2n1
AC50 [1]: 16.4 µM (active)

Cc1ccc2nc(SCC(=O)N/N=C/c3ccco3)cc(C)c2c1
IC50 [2]: 41.8 µM (inactive)

CC1CCc2[nH]c3ccc(C(=O)N(C)CC(=O)Nc4ccccc4C(F)(F)F)cc3c2C1 (centres undefined)
IC50 [2]: > 80 µM (inactive)

CC(=O)c1cc(NC(=O)c2cccc(C(F)(F)F)c2)c(=O)oc1/C=C/N(C)C
EC50 [3]: > 99 µM (inactive) | EC50 [4]: 5.91 µM (active) | AC50 [5]: inconclusive | EC50 [6]: 22.2 µM (inactive) | EC50 [7]: > 300 µM (not active) | EC50 [8]: > 300 µM (inconclusive) | AC50 [9]: 6.31 µM (inconclusive)

COC(=O)C/C=C\[C@@H](C)[C@@H](/C=N\OC[C@@H](O)COCc1ccco1)NS(=O)(=O)c1ccc(C)cc1
AC50 [10]: inconclusive

COCCc1ncc(CN2CCC(C(=O)Nc3ccc(-n4cccn4)cc3)CC2)cn1
EC50 [11]: 1.29 µM (active)

COc1ccc([N+](=O)[O-])cc1/C=N/NC(=O)CNC(=O)c1cccc(F)c1
IC50 [12]: 6.76 µM (active) | AC50 [13]: 87.2 µM (active) | IC50 [14]: 10.3 µM (active)

Cc1cc(C)n(-c2nc3c(c(=O)[nH]c(=O)n3C)n2CC(C)C)n1
AC50 [10]: inconclusive | AC50 [15]: inconclusive

CCOC(=O)c1cnc2c(CC)cccc2c1NCCCN1CCOCC1
AC50 [1]: 21.6 µM (active)

CCc1cc(-c2n[nH]c(C)c2-c2nc3ccccc3n2C)c(O)cc1O
IC50 [2]: > 80 µM (inactive) | AC50 [16]: 40.6 µM (active)

CC[C@]1(O)C[C@H]2CN(CCc3c([nH]c4ccccc34)[C@](C(=O)OC)(c3cc4c(cc3OC)N(C=O)[C@H]3[C@@](O)(C(=O)OC)[C@H](OC(C)=O)[C@@]5(CC)C=CCN6CC[C@]43[C@H]65)C2)C1
AC50 [10]: inconclusive

COc1ccc(-c2cc(-c3ccc(Cl)cc3)c(C#N)c(SCC(=O)O)n2)cc1
IC50 [17]: 50 µM (active)

CCC1(CC)C(=O)C2=C3C1[C@H](C(=O)OC)C=C(C(=O)OC)C[C@H]3n1c(=O)n(-c3ccccc3)c(=O)n1[C@H]2C (some centres undefined)
IC50 [18]: 22.4 µM (inactive)

C/C(Cn1nnc([N+](=O)[O-])n1)=N\NC(=O)c1ccc(Cl)c(Cl)c1
IC50 [2]: > 80 µM (inactive) | IC50 [19]: > 20 µM (inactive) | EC50 [20]: 0.184 µM (active) | IC50 [21]: 18.5 µM (active) | IC50 [22]: > 20 µM (inactive) | IC50 [23]: > 20 µM (inactive) | EC50 [24]: > 20 µM (inactive) | EC50 [25]: 4.92 µM (active) | EC50 [26]: > 60 µM (not active)

CCOC(=O)CCCCCC(=O)Nc1ccc2c(c1)C(=O)N([C@H](C)CO)C[C@H](C)[C@@H](CN(C)C(=O)Nc1ccccc1)OCCCC[C@@H](C)O2
IC50 [18]: 30.8 µM (inactive)

N#Cc1cc(-c2ccccc2)nnc1Oc1ccccc1Cl
EC50 [11]: 0.173 µM (active)

O=C(O)COc1ccccc1/C=C1\C(=O)NC(=O)N(CCC2=CCCCC2)C1=O
IC50 [17]: > 100 µM (active)

CCOC(=O)CN1C(=O)NC2NC(=O)NC21 (centres undefined)
IC50 [18]: 23.8 µM (inactive)

COC(=O)C/C=C\[C@@H](C)[C@@H](/C=N\OC[C@@H](O)[C@H]1O[C@H]2OC(C)(C)O[C@H]2[C@@H]1O)OC
AC50 [10]: inconclusive | AC50 [9]: 5.01 µM (inconclusive)

O=C(NCCCn1ccnc1)C(=O)NCC(c1ccco1)N1CCN(c2ccc(F)cc2)CC1 (centres undefined)
AC50 [13]: 99.3 µM (active)

Source: ChEMBL document CHEMBL1201862, “PubChem BioAssay data set” (2004)
